US20230046617A1, “METHOD FOR PROMOTING EXPANSION OF HEMATOPOIETIC STEM CELLS AND AGENT FOR USE IN THE METHOD” (FARON PHARMACEUTICALS OY, priority 2020, published 2023)

Tests used:
[1] = system: human umbilical CB-derived HSCs (CD34+CD38-); test: Liquid culture expansion of umbilical cord blood derived HSCs; assay type: cell-based
Experimental: For human umbilical CB cells, an antibody-based EasySep kit was used to enrich CD34^+CB cells, which were subsequently stained with anti-CD38 and anti-CD34 antibodies. CD38^−CD34^+ cells were sorted using a FACSAria Ilu instrument (BD Biosciences) and then cultured in StemSpan SFEM medium II (STEMCELL Technologies) containing human stem cell factor (100 ng/ml), FMS-like tyrosine kinase 3 ligand (100 ng/ml), and thrombopoietin (50 ng/ml) (all from Peprotech). Cells were seeded at a density of 1×10^3 per ml. LJP-1586 was added immediately after plating when indicated. Cultures were maintained for 21 days, and half the medium was replaced by that containing the same cytokines and LJP-1586 on days 5, 8, 12, 15, and 18. CD34^+ cells from human umbilical CB were isolated via a two-step procedure using Ficoll-Plaque gradient centrifugation (Amersham Pharmacia Biotech, Uppsala, Sweden) and an EasySep Human Cord Blood CD34 Positive Selection Kit II (STEMCELL Technologies). For batch and single cell sorting of VAP-1^+ and VAP-1^− cells from CB we used a Sony SH800 cell sorter with class A2 Level II biosafety cabinet using 130 μm microfluidic sorting chips. This sorter applies low shear stress on cells allowing better survival during cell culture. CD34^+ cells were also sorted into VAP-1^+ and VAP-1^−HSCs (Lineage-CD34+CD38). From these, 100 VAP-1+ and VAP-1−HSCs were then cultured in StemSpan SFEM medium II (STEMCELL Technologies) containing human stem cell factor (100 ng/ml), FMS-like tyrosine kinase 3 ligand (100 ng/ml), and thrombopoietin (50 ng/ml) (all from Peprotech). LJP-1586 was added immediately after plating at a concentration of 1 μM. Cultures were maintained for 20 days. Fresh medium containing the same cytokines and LJP-1586 was added on days 5, 8, 10, 12, 15 and 18. The cells were analysed on days 10 and 15 for CD38−CD34+CD45RA−CD90+ expression using LSR Fortessa instrument (BD Biosciences). Alternatively, a VAP-1 inhibitor szTU73 was used in CB cultures at concentrations 1, 5 and 10 micromolar.

CB-derived HSCs = test: CFU assay of CB-derived cells expanded in liquid culture; assay type: cell-based, human; settings: after 15 days liquid culture with LJP-1586 (0.5 μM), then CFU assay with LJP-1586
Experimental: (§1) The progeny of 900 CD38^−CD34^+ cells collected from 15-day-old in vitro cultures, obtained as described above, were grown in methylcellulose-based medium (H4436, STEMCELL Technologies) containing or lacking LJP-1586. After 14 days, single, multilineage, and mixed colonies were visually scored by microscopy. Cryopreserved human CD34^+ cells from AllCells were thawed, resuspended, and counted according to the manufacturer's protocol. Five hundred thawed human BM CD34^+ cells were cultured in complete methylcellulose-based medium (H4436, STEMCELL Technologies) containning or lacking LJP-1586. The total number of colonies was counted at 14 days after plating. Replating was performed twice by harvesting and dissociating cells under sterile conditions.

[2] = system: human CD45+ cells engraftment in the BM of NBSGW mice; test: In vivo engraftment of sorted human BM cells in non-irradiated NBSGW mice; settings: VAP-1+ cells in the transfer pool; inhibitor 10 mg/kg i.p. three times a week for six weeks; cut-off 0.1% human CD45+
Excerpt: Human fresh frozen BM CD34+ cells (LONZA) were thawed and stained with APC conjugated mouse anti-Lineage cocktail, PE-Cy7-conjugated anti-CD34 and FITC-conjugated monoclonal antibodies 1B2, TK8-14, and JG-2 against different epitopes of human VAP-1. For batch cell sorting of VAP-1^+/lo and VAP-1^− cells we used a Sony SH800 cell sorter with class A2 Level II biosafety cabinet using 130 μm microfluidic sorting chips. The NBSGW (immune-deficient, c-Kit-deficient) mice not needing irradiation to accept human cells were used as […]. In the VAP-1^− group 19000 cells and in the VAP-1−+VAP-1^+/lo group 16250 VAP-1^− cells and 2750 VAP-1^+/lo cells were intravenously injected per animal. […] Samples were run on LSR fortessa and the data was analyzed with FlowJo. Percentage of chimerism [% chimerism=(% test donor-derived cells)×100/((% test donor-derived cells+(% competitor-derived cells))] was calculated as described (Ema et al., “Adult mouse hematopoietic stem cells: purification and single-cell assays”, Nat Protoc 2006 1(6), 2979-2987).

[3] = system: human BM-derived CD34+ cells; test: CFU assay of human BM-derived CD34+ cells with replating; assay type: cell-based; settings: LJP-1586 0.5 μM
Experimental: as §1

[4] = system: ROS in human CD34+ BM cells (CD38-CD34+ gated); test: ROS production (oxidative burst) by DHR-123 and flow cytometry; assay type: cell-based; settings: 9-day liquid cultures, PMA activation, bone marrow derived HSCs
Experimental: Human CD34^+BM cells were liquid cultured for nine days in StemSpan SFEM medium II (STEMCELL Technologies) containing human stem cell factor (100 ng/ml), FMS-like tyrosine kinase 3 ligand (100 ng/ml), and thrombopoietin (50 ng/ml) (all from Peprotech) with or without LJP-1586. After nine days, the cells were stained with anti-CD38 and anti-CD34 antibodies, washed using DMEM, centrifuged and resuspended in 100 μl DMEM. Then, ROS were detected by DHR-123 reagent (Molecular Probes). For this, DHR-123 was diluted in DMSO and kept as a 5 mM stock solution at −20° C. for single use. […] The cells were then incubated for 10 min at 37° C. and followed by activation with Phorbol 12-myristate 13-acetate (PMA) (Sigma-Aldrich. The stock solution of PMA was frozen at 1 mg/ml in DMSO, freshly thawed and diluted 500 times in order to add 12.5 μl to a final concentration of 200 ng/ml. After 20 min at 37° C., the cells were washed with PBS, resuspended and analyzed by flow cytometry. The red DHR123 turns to green after oxidation. CD38^− and CD34^+ positive cells were gated and fluorescence intensity of oxidized DHR-123 was measured from the filter channel 530 nm/30 nm using LSR Fortessa instrument (BD Biosciences) and analyzed by FlowJo software (Tree Star).

COc1ccc(C/C(=C/F)CN)cc1.Cl [LJP-1586, Z-3-fluoro-2-(4-methoxybenzyl)allylamine hydrochloride]
number of primitive HSCs (CD34+CD38-CD45RA-CD90+CD49f+) compared to non-treated cultures ([1]; 1 μM, 15 days, average of three donors): 11 times
HSC expansion compared to control cells ([1]; 1 μM, grown for 18 days): more than 31 times
share of HSCs in gate P-3 that were primitive HSCs ([1]; CD34+CD38-CD45RA-CD90+CD49f+): More than 12%
expansion of VAP-1+ HSCs in long term liquid cultures ([1]; day 20, 1 μM): boosted their expansion
expansion of HSCs at other concentrations ([1]; higher or lower concentrations than 1 μM): less efficient
number of CFUs compared to control cultures (CB-derived HSCs): 7.9 times
mice that accepted the human BM engraftment [2]: 3/3
number of CFUs higher than control cultures after re-plating ([3]; after dissociating and re-plating twice): 92%
number of CFUs higher than control cultures ([3]; first plating, 500 BM CD34+ cells): 33%
ROS reduction (MFI) compared to control cells [4]: 62%
